This assay addresses one or more of HDAC-4, HDAC-5, HDAC-6, HDAC-7, HDAC-8, HDAC-9, HDAC-10 and HDAC-11. Description: Inhibition of histone deacetylase enzymatic activity (summary statement over isoforms). The note with it: Table 3, selected examples; HDAC isoform not given. The assay is classed as biochemical. Summed up:
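HDAC enzyme mix with compound was preincubated 5 min at room temperature. Reaction was started at 37 °C with Boc-Lys(trifluoroacetyl)-AMC substrate and run 20-30 min. It was stopped with trypsin (1 mg/mL) plus a known HDAC inhibitor to release the fluorogenic AMC.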

pIC50: −log10 of the molar value.

For `O=C(NO)C(c1ccccc1)c1ccc(-c2cccc3ccccc23)cc1` (stereo not shown) [Compound 5-13, N-hydroxy-2-(4-(naphthalen-1-yl)phenyl)-2-phenylacetamide], the pIC50 (in general, the negative decadic logarithm of the IC50, by convention in mol/L) is more than 6.00. As for `O=C(NO)C(Oc1ccc(-c2ccccc2)cc1)c1ccccc1` (stereo not shown) [Compound 5-14, 2-(biphenyl-4-yloxy)-N-hydroxy-2-phenylacetamide], the pIC50 was 4.82 to 6.00.

Regarding `O=C(NO)C(c1ccccc1)c1cccnc1` (stereo not shown) [Compound 5-15, N-hydroxy-2-phenyl-2-(pyridin-3-yl)acetamide], the pIC50 is more than 6.00. For `O=C(NO)C(c1ccccc1)N1CCc2[nH]c3ccc(F)cc3c2C1` (stereo not shown) [Compound 5-16, 2-(8-fluoro-3,4-dihydro-1H-pyrido[4,3-b]indol-2(5H)-yl)-N-hydroxy-2-phenylacetamide] the value was 4.82 to 6.00; for `O=C(NO)C(c1ccccc1)N1CCC(c2cn(Cc3ccccc3)c3ccccc23)CC1` (stereo not shown) [Compound 5-17, 2-(4-(1-benzyl-1H-indol-3-yl)piperidin-1-yl)-N-hydroxy-2-phenylacetamide], more than 6.00.

`O=C(NO)C(c1ccccc1)N1CCC(c2noc3ccc(F)cc23)CC1` (stereo not shown) [Compound 5-18, 2-(4-(5-fluorobenzo[d]isoxazol-3-yl)piperidin-1-yl)-N-hydroxy-2-phenylacetamide] gave a pIC50 of more than 6.00.

Compound `O=C(NO)C(c1ccccc1)c1nnc(-c2ccccc2)s1` (stereo not shown) [Compound 5-19, N-hydroxy-2-phenyl-2-(5-phenyl-1,3,4-thiadiazol-2-yl)acetamide] gave a pIC50 of 4.82 to 6.00. `O=C(NO)C(c1ccccc1)N1CCN(C2=Nc3ccccc3Oc3ccc(Cl)cc32)CC1` (stereo not shown) [Compound 5-20, (E)-2-(4-(2-chlorodibenzo[b,f][1,4]oxazepin-11-yl)piperazin-1-yl)-N-hydroxy-2-phenylacetamide] showed a pIC50 of more than 6.00.

The compound `CN(C)c1ccc(-c2ccc(C(C(=O)NO)c3ccccc3)cc2)cc1` (stereo not shown) [Compound 5-21, 2-(4′-(dimethylamino)biphenyl-4-yl)-N-hydroxy-2-phenylacetamide] showed a pIC50 of more than 6.00.

In the case of `O=C(NO)C(c1ccccc1)c1ccc(N2CCOCC2)cc1` (stereo not shown) [Compound 5-22, N-hydroxy-2-(4-morpholinophenyl)-2-phenylacetamide], the pIC50 was more than 6.00.

For the compound `O=C(NO)C(c1ccccc1)c1ccc(-c2cncnc2)cc1` (stereo not shown) [Compound 5-23, N-hydroxy-2-phenyl-2-(4-(pyrimidin-5-yl)phenyl)acetamide], the pIC50 was more than 6.00.

In turn, `COc1ccc(C2CCN(C(C(=O)NO)c3ccccc3)CC2)cc1` (stereo not shown) [Compound 5-24, N-hydroxy-2-(4-(4-methoxyphenyl)piperidin-1-yl)-2-phenylacetamide] had a pIC50 of more than 6.00. For `O=C(NO)C(c1ccccc1)c1ccc(N2CCN(c3ccccc3)CC2)cc1` (stereo not shown) [Compound 5-26, N-hydroxy-2-phenyl-2-(4-(4-phenylpiperazin-1-yl)phenyl)acetamide] the value was more than 6.00. `O=C(NO)C(Sc1ccc2ccccc2c1)c1ccccc1` (stereo not shown) [Compound 5-28, N-hydroxy-2-(naphthalen-2-ylthio)-2-phenylacetamide] gave a pIC50 of more than 6.00.

`O=C(NO)C(c1ccccc1)c1cccc(-c2ccccc2)c1` (stereo not shown) [Compound 5-29, 2-(biphenyl-3-yl)-N-hydroxy-2-phenylacetamide]: the pIC50 is more than 6.00. For `O=C(NO)C(c1ccccc1)c1cccc(-c2ccncc2)c1` (stereo not shown) [Compound 5-30, N-hydroxy-2-phenyl-2-(3-(pyridin-4-yl)phenyl)acetamide] the value was more than 6.00.

In the case of `O=C(NO)C1c2ccccc2CCc2ccccc21` [Compound 5-31], the pIC50 was 4.82 to 6.00. For `CN(C)c1ccc(C(C(=O)NO)c2ccccc2)c2ccccc12` (stereo not shown) [Compound 5-32, 2-(4-(dimethylamino)naphthalen-1-yl)-N-hydroxy-2-phenylacetamide] the value was 4.82 to 6.00; for `O=C(NO)C(c1ccccc1)c1ccc(OCc2ccccc2)cc1` (stereo not shown) [Compound 5-33, 2-(4-(benzyloxy)phenyl)-N-hydroxy-2-phenylacetamide], more than 6.00.
